Here are results for seven molecules from ChEMBL document CHEMBL1201862, “PubChem BioAssay data set” (2004).

Experiment [1] has as its target Intestinal-type alkaline phosphatase (Mus musculus, UniProt P24822). Briefly: PubChem AID 488785. It is filed as functional.
For experiment [2], the target named is Intestinal-type alkaline phosphatase (Homo sapiens, UniProt P09923). Kind of experiment: inhibition of human intestinal alkaline phosphatase – biochemical, dose response (AID 488876). It is filed as functional.
Intestinal-type alkaline phosphatase (Homo sapiens, UniProt P09923), sequence (P09923 whole entry): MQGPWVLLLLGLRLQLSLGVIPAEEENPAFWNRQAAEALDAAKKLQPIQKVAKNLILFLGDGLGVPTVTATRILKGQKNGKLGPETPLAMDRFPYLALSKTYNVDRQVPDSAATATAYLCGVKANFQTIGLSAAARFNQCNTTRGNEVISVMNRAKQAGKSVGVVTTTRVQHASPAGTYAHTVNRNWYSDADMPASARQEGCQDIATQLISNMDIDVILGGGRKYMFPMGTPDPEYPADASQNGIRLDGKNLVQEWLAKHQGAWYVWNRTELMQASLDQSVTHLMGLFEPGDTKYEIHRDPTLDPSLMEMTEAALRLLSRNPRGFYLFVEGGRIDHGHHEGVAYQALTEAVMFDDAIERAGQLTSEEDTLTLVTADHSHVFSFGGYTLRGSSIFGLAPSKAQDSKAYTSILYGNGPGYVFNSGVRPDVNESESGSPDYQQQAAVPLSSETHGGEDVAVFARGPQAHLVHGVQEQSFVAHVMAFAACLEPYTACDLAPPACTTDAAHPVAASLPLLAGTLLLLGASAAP
Experiment [3] has as its target T1, Alkaline phosphatase, tissue-nonspecific isozyme (Homo sapiens, UniProt P05186).
T1 sequence (P05186 whole entry): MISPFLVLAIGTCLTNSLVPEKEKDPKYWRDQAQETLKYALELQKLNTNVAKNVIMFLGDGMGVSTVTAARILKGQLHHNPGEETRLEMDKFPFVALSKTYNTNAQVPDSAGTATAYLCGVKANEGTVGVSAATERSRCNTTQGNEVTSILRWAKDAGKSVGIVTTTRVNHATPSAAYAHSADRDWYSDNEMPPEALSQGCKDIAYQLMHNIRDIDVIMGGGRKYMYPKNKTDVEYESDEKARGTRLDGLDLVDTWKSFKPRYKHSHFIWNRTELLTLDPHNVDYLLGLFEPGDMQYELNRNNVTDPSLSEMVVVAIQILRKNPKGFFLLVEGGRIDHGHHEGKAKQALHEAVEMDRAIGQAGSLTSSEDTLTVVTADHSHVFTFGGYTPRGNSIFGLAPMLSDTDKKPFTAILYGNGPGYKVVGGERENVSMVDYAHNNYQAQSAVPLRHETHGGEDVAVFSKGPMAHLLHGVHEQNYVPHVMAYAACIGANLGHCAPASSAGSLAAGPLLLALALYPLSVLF
Kind of experiment: TNAP enzyme inhibition by screening hits, dose response, selectivity assay for mouse IAP inhibitor project, biochemical, human TNAP, uHTS hits (AID 488906). It is filed as functional.

The nature of experiment [4]: C. albicans growth with fluconazole, confirmation, fluorescence, retest (AID 2467). The class given is functional, cell-based.
Experiment [5] concerns the target Sphingosine 1-phosphate receptor 4 (Homo sapiens, UniProt O95977). Kind of experiment: Fluorescence dose response cell-based high throughput screening assay for agonists of the Sphingosine 1-Phosphate Receptor 4 (S1P4). [Related pubchem assays: 1509 (Primary screen.), 1523 (Confirmation screen in triplicates.)]. It is filed as functional.
Experiment [6] is described as follows: NIH-3T3 fibroblast cytotoxicity, dose response, cytotoxicity control, cell-based, fluorescence, Alamar Blue, secondary assay (AID 2327).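 Note: NIH-3T3 mouse fibroblasts cultured with fluconazole at 8 µg/mL.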 The class given is functional. Background: Resazurin is reduced to fluorescent resorufin, in cell work by metabolically active cells.
The target of experiment [7] is Sphingosine 1-phosphate receptor 2 (Homo sapiens, UniProt O95136). Briefly: Dose Response Cell Based Assay for Agonists of the S1P2 Receptor. [Related pubchem assays: 729, 736, 843 ]. It is filed as functional.
Sphingosine 1-phosphate receptor 2, sequence (O95136 whole entry): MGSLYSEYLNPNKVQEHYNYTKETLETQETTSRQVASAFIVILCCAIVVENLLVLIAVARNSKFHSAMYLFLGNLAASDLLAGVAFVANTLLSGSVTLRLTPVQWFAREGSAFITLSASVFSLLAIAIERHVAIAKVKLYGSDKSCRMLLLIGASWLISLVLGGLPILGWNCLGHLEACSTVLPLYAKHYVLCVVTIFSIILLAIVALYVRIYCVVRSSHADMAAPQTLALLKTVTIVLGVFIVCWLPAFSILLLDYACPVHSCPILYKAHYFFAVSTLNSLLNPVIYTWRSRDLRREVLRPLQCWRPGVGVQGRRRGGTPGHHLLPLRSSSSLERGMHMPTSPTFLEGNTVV
Experiment [8] deals with Sphingosine 1-phosphate receptor 1 (Homo sapiens, UniProt P21453). Briefly: Fluorescence-based counterscreen assay for S1P4 agonists: Cell-based dose response high throughput screening assay to identify agonists of the Sphingosine 1-Phosphate Receptor 1 (S1P1). [Related pubchem assays (depositor defined):AID1509, AID1523, AID1801, AID463107, AID463118, AID463119, AID463122, AID463123, AID463129, AID463225, AID504400, AID504460]. The class given is functional. Background: A counterscreen serves to expose hits that act by an unwanted route or on another target.

Experiment [9] has as its target Cytochrome P450 3A4 (Homo sapiens, UniProt P08684).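 Note: CYP3A4 tested as one member of a cytochrome P450 panel screen.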
In experiment [10] the target is Peroxisome proliferator-activated receptor gamma/Nuclear receptor coactivator 1 (Homo sapiens, UniProt P37231). Kind of experiment: TR-FRET dose response biochemical High Throughput Screening assay for agonists of the steroid receptor coactivator 1 (SRC-1) recruitment by the peroxisome proliferator-activated receptor gamma (PPAR gamma): non-selective agonists. [Related pubchem assays (depositor defined):AID1300, AID1808, AID504735, AID631]. It is filed as protein assay.

Experiment [11] addresses Peroxisome proliferator-activated receptor gamma/Nuclear receptor coactivator 2 (Homo sapiens, UniProt P37231). Kind of experiment: TR-FRET dose response biochemical High Throughput Screening assay for agonists of the steroid receptor coactivator 2 (SRC-2) recruitment by the peroxisome proliferator-activated receptor gamma (PPAR gamma): non-selective agonists. [Related pubchem assays: 1297, 1032 ]. The class given is functional. A general note: Time-resolved FRET reads energy transfer from a long-lived donor to a nearby acceptor.

The target in experiment [12] is Peroxisome proliferator-activated receptor gamma/Nuclear receptor coactivator 3 (Homo sapiens, UniProt P37231). Briefly: TR-FRET dose response biochemical High Throughput Screening assay for agonists of the steroid receptor coactivator 3 (SRC-3) recruitment by the peroxisome proliferator-activated receptor gamma (PPAR gamma): non-selective agonists. [Related pubchem assays: 1301 (Confirmation screen.), 1048 (Primary screen.)]. It is filed as functional.

The target in experiment [13] is T2, E3 ubiquitin-protein ligase XIAP (Homo sapiens, UniProt P98170). Kind of experiment: SAR analysis of Antagonists of IAP-family anti-apoptotic proteins. [Related pubchem assays (depositor defined):AID1018, AID1449, AID1513, AID1514, AID1638].
T2 sequence (P98170 whole entry, the tested form may be a part): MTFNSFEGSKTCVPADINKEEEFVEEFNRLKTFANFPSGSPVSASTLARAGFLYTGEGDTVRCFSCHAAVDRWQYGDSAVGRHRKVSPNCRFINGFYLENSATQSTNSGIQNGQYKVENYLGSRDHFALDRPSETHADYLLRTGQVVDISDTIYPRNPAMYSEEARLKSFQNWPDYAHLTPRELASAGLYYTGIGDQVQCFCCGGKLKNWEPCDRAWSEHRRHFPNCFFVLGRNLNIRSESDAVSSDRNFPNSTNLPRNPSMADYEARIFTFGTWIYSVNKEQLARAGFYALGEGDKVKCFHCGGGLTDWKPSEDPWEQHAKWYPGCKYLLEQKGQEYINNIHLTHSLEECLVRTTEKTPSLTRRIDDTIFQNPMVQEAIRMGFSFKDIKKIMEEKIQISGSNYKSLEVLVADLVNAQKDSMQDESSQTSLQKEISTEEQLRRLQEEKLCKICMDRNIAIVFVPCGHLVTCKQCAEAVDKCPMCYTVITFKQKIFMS
The target of experiment [14] is T2, E3 ubiquitin-protein ligase XIAP. Kind of experiment: SAR analysis of Antagonists of XIAP-Bir3 domain of IAP-family anti-apoptotic proteins. [Related pubchem assays (depositor defined):AID1018, AID1449, AID1513, AID1514, AID1638].
The target is the same in experiment [15]. Briefly: Counter Screen using XIAP-Bir3 for Chemical Antagonists of Bir1/2 domains of IAP-family anti-apoptotic proteins. [Related pubchem assays (depositor defined):AID1018, AID1449, AID1514, AID1638, AID1749, AID1750, AID488957, AID488963].
The target in experiment [16] is 5-hydroxytryptamine receptor 5A (Homo sapiens, UniProt P47898). Briefly: Counterscreen for agonists of OPRM1-OPRD1 heterodimerization: luminescence-based cell-based high throughput dose response assay to identify agonists of 5-hydroxytryptamine (serotonin) 5A receptor (HTR5A). [Related pubchem assays (depositor defined):AID504326, AID504355, AID504692, AID504904, AID504905]. The class given is functional.

The target in experiment [17] is Delta-type opioid receptor (Homo sapiens, UniProt P41143). Briefly: Counterscreen for agonists of heterodimerization of the mu 1 (OPRM1) and delta 1 (OPRD1) opioid receptors: Luminescence-based cell-based high throughput dose response assay to identify agonists of OPRD1 homodimerization. [Related pubchem assays (depositor defined):AID504326, AID504355, AID504692, AID504904, AID504905]. The class given is functional.

Experiment [18] deals with INS1. Kind of experiment: beta cell apoptosis inhibitors, cytokine rescue, dose response, luminescence, retest (AID 449756).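 Note: cell death triggered by IL-1 beta plus TNF-alpha plus IFN-gamma mixture; protective hits raise ATP signal compared with cytokine alone wells.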 It is filed as functional, cell-based. The following applies: Rattus norvegicus.
Experiment [19] has as its target T3, Ubiquitin-conjugating enzyme E2 N (Homo sapiens, UniProt P61088).
T3 sequence (P61088 whole entry): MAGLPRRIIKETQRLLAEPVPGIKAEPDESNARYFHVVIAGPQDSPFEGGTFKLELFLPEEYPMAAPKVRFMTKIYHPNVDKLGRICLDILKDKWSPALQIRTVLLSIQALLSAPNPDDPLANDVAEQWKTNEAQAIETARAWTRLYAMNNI
It is filed as functional.

Experiment [20] concerns the target T4, Short transient receptor potential channel 4 (Mus musculus, UniProt Q9QUQ5).
T4 sequence (Q9QUQ5 whole entry): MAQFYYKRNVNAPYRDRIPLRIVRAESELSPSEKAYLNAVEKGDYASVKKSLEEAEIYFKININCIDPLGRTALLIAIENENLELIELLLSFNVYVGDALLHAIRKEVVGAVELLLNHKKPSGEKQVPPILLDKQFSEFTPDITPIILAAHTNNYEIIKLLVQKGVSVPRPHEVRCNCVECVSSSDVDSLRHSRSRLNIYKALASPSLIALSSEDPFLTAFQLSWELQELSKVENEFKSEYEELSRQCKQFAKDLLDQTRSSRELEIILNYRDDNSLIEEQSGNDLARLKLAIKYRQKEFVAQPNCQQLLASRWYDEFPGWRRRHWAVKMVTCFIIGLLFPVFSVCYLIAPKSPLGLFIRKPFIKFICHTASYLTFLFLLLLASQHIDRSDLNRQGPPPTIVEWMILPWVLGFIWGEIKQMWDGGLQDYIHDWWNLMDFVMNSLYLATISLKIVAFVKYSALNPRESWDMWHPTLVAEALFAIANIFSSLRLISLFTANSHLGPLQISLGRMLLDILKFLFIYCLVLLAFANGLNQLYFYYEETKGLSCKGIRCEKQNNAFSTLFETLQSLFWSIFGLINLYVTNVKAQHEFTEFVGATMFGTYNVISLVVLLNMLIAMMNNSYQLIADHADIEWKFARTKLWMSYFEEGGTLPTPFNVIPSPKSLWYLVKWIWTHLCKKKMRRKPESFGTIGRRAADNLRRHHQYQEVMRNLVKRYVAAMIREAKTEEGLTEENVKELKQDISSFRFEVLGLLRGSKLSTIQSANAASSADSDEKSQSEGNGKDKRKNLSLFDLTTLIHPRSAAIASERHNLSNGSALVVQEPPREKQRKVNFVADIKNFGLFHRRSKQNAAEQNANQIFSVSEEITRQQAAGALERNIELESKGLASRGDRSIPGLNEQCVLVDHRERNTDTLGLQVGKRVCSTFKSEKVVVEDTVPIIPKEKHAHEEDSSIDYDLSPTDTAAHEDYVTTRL
Briefly: mouse TRPC4 channel activators, dose response, cell-based, HEK293 TRPC4/mu-opioid, Fluo-4 calcium (AID 434937). It is filed as functional.

Experiment [21] deals with Bcl-2-related protein A1 (Mus musculus, UniProt Q07440). It is filed as functional.
Bcl-2-related protein A1, sequence (Q07440 whole entry, the tested form may be a part): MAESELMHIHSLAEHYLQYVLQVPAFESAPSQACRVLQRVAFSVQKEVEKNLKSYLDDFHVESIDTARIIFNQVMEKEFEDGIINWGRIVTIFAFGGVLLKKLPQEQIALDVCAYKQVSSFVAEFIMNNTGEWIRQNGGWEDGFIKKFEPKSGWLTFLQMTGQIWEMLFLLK
Experiment [22] addresses Type-1 angiotensin II receptor (Homo sapiens, UniProt P30556). Kind of experiment: AT1 receptor agonists, dose response, selectivity assay for APJ receptor agonist project, cell-based, uHTS hits (AID 488865).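 Note: beta-arrestin recruitment to AT1 measured by enzyme fragment complementation luminescence.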 It is filed as functional.
The target of experiment [23] is T3, Ubiquitin-conjugating enzyme E2 N. It is filed as functional. The source holds these as a separate data set.
Experiment [24] deals with Mu-type opioid receptor (Homo sapiens, UniProt P35372). Briefly: Counterscreen for agonists of heterodimerization of the mu 1 (OPRM1) and delta 1 (OPRD1) opioid receptors: Luminescence-based cell-based high throughput dose response assay to identify agonists of OPRM1 homodimerization. The class given is functional.
Mu-type opioid receptor, sequence (P35372 whole entry): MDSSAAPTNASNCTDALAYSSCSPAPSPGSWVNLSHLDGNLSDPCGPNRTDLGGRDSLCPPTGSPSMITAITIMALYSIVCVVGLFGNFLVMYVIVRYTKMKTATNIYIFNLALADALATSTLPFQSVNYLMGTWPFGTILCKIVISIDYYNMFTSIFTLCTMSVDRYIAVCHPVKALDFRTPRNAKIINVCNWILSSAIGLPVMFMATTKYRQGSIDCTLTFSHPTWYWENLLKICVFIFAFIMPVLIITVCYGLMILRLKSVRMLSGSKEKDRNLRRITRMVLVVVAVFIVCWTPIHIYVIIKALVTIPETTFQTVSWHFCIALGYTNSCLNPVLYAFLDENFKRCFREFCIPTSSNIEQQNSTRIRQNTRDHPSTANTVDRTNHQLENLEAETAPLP
For experiment [25], the target named is Nonstructural protein 1 (Influenza A virus, UniProt Q194T2). The class given is functional, Influenza A virus (A/California/07/2009(H1N1)).
Experiment [26] has as its target Nucleotide-binding oligomerization domain-containing protein 1 (Homo sapiens, UniProt Q9Y239). Briefly: NOD1 signaling inhibitors, SAR follow-up, revised (AID 2333). The class given is functional.
Experiment [27] addresses Tumor necrosis factor (Homo sapiens, UniProt P01375). Kind of experiment: TNFa-triggered NF-kB activation inhibitors, SAR follow-up, cell-based, revised (AID 2337). The class given is functional.
The test system of experiment [28] is HEK293. Kind of experiment: cells. The conditions noted are these: Homo sapiens.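 Note: cells exposed to compound for 14 hours overnight before viability readout.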

Each structure is given as a SMILES string. “And” between values parts separate entries of the source, which are not always exact repeats. Equal values may be shown once. The source made the active and inactive calls.

Nucleotide-binding oligomerization domain-containing protein 1, sequence (Q9Y239 whole entry, the tested form may be a part): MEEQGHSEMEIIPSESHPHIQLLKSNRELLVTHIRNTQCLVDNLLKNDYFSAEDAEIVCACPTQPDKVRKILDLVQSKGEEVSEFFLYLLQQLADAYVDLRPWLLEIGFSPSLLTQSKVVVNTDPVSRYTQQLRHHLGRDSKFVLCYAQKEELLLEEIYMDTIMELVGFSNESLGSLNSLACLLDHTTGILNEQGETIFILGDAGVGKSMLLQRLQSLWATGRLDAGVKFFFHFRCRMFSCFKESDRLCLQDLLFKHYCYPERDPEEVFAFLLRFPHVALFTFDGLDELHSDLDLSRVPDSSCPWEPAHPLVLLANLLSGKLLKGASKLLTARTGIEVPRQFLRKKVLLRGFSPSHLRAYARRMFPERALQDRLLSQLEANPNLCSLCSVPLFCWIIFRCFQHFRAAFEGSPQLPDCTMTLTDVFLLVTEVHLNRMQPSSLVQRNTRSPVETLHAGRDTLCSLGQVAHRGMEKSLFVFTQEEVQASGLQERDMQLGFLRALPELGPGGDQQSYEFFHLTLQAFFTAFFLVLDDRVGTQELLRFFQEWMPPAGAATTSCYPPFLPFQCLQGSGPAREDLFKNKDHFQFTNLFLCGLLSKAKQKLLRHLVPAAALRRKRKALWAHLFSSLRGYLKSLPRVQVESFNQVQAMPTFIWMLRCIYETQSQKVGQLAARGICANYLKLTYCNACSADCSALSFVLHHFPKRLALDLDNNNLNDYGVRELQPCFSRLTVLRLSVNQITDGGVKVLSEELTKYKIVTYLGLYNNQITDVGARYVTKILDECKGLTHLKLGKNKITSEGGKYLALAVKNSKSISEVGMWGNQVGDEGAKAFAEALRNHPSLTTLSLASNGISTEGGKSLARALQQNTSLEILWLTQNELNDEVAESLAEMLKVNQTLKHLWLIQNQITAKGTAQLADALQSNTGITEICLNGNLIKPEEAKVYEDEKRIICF
Tumor necrosis factor, sequence (P01375 whole entry): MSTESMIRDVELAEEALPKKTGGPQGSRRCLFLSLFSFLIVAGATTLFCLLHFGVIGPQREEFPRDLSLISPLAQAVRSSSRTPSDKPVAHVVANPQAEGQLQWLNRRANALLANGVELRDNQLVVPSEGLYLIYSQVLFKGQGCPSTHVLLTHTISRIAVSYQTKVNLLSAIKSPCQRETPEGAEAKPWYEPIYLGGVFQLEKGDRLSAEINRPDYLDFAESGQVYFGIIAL
Sphingosine 1-phosphate receptor 4, sequence (O95977 whole entry): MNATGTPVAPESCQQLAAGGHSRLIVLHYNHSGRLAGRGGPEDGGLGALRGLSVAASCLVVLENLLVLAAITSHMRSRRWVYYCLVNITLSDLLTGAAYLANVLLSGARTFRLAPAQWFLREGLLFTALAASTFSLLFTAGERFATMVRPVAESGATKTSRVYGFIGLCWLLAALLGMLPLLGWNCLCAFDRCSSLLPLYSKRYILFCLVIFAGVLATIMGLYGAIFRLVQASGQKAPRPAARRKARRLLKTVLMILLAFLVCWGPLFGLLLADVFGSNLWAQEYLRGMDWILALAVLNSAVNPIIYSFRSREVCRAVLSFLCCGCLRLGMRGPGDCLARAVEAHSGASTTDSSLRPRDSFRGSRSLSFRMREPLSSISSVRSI
Type-1 angiotensin II receptor, sequence (P30556 whole entry, the tested form may be a part): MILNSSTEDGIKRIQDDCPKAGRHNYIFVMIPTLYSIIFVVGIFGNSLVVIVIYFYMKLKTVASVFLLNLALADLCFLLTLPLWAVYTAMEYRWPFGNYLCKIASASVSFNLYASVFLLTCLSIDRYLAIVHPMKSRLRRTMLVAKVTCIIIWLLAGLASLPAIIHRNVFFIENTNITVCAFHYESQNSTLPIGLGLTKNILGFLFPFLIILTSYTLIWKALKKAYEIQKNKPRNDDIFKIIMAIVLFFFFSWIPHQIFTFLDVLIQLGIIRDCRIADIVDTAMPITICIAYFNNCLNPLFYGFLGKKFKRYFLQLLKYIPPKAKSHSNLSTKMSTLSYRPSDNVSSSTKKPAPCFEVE
Cytochrome P450 3A4, sequence (P08684 whole entry): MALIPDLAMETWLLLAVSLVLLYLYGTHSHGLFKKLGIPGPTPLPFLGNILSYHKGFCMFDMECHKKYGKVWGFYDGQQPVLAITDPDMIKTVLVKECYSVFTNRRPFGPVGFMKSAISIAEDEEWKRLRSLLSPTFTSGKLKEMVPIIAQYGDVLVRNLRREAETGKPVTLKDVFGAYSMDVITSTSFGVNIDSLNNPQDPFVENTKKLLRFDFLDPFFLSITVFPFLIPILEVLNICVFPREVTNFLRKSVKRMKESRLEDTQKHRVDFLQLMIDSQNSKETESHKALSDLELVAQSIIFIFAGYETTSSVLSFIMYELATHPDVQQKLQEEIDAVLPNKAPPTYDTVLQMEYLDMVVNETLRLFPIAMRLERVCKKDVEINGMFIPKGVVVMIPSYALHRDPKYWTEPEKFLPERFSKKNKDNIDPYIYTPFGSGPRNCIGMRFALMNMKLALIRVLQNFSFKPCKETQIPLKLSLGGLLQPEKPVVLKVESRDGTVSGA
Intestinal-type alkaline phosphatase (Mus musculus, UniProt P24822), sequence (P24822 whole entry): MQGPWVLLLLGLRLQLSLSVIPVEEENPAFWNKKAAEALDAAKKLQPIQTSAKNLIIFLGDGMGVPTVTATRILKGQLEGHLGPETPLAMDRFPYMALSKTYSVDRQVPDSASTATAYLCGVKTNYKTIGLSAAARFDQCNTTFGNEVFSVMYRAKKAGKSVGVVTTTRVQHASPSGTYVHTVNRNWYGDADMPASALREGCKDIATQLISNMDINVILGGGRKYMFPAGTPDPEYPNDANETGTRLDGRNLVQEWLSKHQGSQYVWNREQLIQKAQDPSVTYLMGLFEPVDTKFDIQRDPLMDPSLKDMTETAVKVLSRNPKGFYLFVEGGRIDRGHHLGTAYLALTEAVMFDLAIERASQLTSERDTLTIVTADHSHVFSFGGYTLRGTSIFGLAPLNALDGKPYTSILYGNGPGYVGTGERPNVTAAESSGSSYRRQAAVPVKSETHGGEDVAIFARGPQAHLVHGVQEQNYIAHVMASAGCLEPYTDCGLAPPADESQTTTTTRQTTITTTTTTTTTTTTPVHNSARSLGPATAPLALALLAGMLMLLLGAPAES

Turning to `COC(=O)c1ccc(NS(=O)(=O)c2ccc3[nH]c(=O)oc3c2)cc1`, the half-maximal inhibitory concentration (IC50) (commonly the concentration needed to halve the response being measured) was 2.6 µM (active) in experiment [1], > 100 µM (inactive) in experiment [2] and > 100 µM (inactive) in experiment [3].
For `Cc1ccccc1-n1c(=O)c(C#N)cc2c(=O)n3ccccc3nc21`, the 50% effective concentration (EC50) (usually the midpoint of the concentration-response curve) in experiment [4] was > 38 µM (not active); in experiment [5] it was 2.58 µM (active); in [6] it was > 160 µM (inactive); in [7], 7.45 µM (active); in experiment [8] it was 7.88 µM (active).
In the case of `CCOC(=O)CSc1cc(=O)n(C)c2cc(Cl)ccc12`, the concentration at half-maximal activity (AC50) – broadly, the midpoint of the concentration-response curve, whichever way the signal moves – in [9] was 22.4 µM (inconclusive). The EC50 in experiment [10] is > 79.4 µM (inactive); in experiment [11] it was > 79.4 µM (not active); in experiment [12] it was > 79.4 µM (not active).
`CC[C@H](NC(=O)[C@H](C)NC)C(=O)N1CCC[C@H]1C(=O)NC1CCCc2ccccc21` (stereo partly drawn): the IC50 in [13] was 9.7 µM (active) and 13.7 µM (active); in [14], 530 nM (active) and 980 nM (active).
In the case of `CC(C)(C)c1ccc(C(CC(=O)O)NC(=O)Cc2ccc(F)cc2)cc1` (stereo not drawn), the IC50 in experiment [15] is > 20 µM (inactive).
In the case of `Cc1ccc2nc(N(CCCN(C)C)C(=O)c3ccc(S(=O)(=O)N4CCc5ccccc5C4)cc3)sc2c1`, the EC50 in experiment [16] is > 92.5 µM (inactive); in [17], > 92.5 µM (inactive); in [20], 3.35 µM (active); in experiment [22] it was 57.8 µM (inactive); in experiment [24], 10.2 µM (inactive). Also, the AC50 in [18] is 6.05 µM (active). The IC50 in [19] was 11 µM (active); in experiment [21], > 20 µM (inactive); in [23] it was 7.23 µM (active); in [25], > 50 µM (active).
For `COC(=O)CC1=NN(c2nc3ccccc3s2)C(=O)/C1=C(/C)Nc1ccc(OC)cc1`, the IC50 is 260 nM (active) and 2.38 µM (active) in experiment [26]; < 39.1 nM (active) and 4.12 µM (active) in experiment [27]; > 20 µM (inactive) in experiment [28].
